This is an account of results in patent publication EP0207358A2, “Growth-promoting agent” (BAYER AG, priority 1985, dated 1987).

The experiment has as its system Weibliche Laborratten. Description: Rat feeding trial (Ratten-Fütterungsversuch). It is filed as in vivo. As to conditions: female SPF Wistar rats 90-110 g; active substance mixed into standard rat feed ad lib; 13-day trial; compared with control group on feed without active substance. From the text: Weibliche Laborratten 90-110 g schwer vom Typ SPF Wistar (Züchtung Hagemann) werden ad lib mit Standard-Rattenfutter, das mit der gewünschten Menge Wirkstoff versetzt ist, gefüttert. Jeder Versuchsansatz wird mit Futter der identischen Charge durchgeführt, so daß Unterschiede in der Zusammensetzung des Futters die Vergleichbarkeit der Ergebnisse nicht beeinträchtigen können.
Die Ratten erhalten Wasser ad lib.
Jeweils 12 Ratten bilden eine Versuchsgruppe und werden mit Futter, das mit der gewünschten Menge Wirkstoff versetzt ist, gefüttert. Eine Kontrollgruppe erhält Futter ohne Wirkstoff. Das durchschnittliche Körpergewicht sowie die Streuung in den Körpergewichten der Ratten ist in jeder Versuchsgruppe gleich, so daß eine Vergleichbarkeit der Versuchsgruppen untereinander gewährleistet ist.
Gewichtszunahme und Futterverbrauch werden während des 13-tägigen Versuches bestimmt.
Regarding `CCOC(=O)c1c(NC(=O)N[C@@H](CCSC)C(=O)OC)sc(-c2ccccc2)c1C` [Beispiel 1], the “Gewichtszunahmen im Vergleich zur Kontrolle” value is reported as “deutliche Gewichtszunahmen”. The result for `CC[C@H](C)[C@H](NC(=O)Nc1cccc2ccccc12)C(=O)O` [Beispiel 2] reads “deutliche Gewichtszunahmen”; that for `COC(=O)[C@H](Cc1c[nH]c2ccccc12)NC(=O)Nc1cccc2ccccc12` [Beispiel 3], “deutliche Gewichtszunahmen”.
